Data set [1] is described as follows: Comparative solubility data for Reference Example 1 (thermodynamic and kinetic). It is filed as physicochemical.
The nature of data set [2]: Solubility in simulated fluids (kinetic solubility, 24 hours). It is filed as physicochemical. The note with it: thermodynamic from solid, 24 hour timepoint, room temperature. How it is done:
A known quantity of the Examples and control compounds were weighed into a suitable vessel (whatman miniuniprep vials) and a known volume of the required media was added (e.g. Simulated Gastric Fluid pH 1.2 [SGF], Simulated Fasted State Intestinal Fluid pH 6.5 [FaSSIF] or Phosphate Buffered Saline pH 7.4 [PBS]). The samples were subjected to vortex mixing for 2 minutes followed by agitation on a shaker for 24 hours at room temperature at 800 rpm.

Data set [3] is described as follows: in vitro. The class given is in vitro ADME. The settings on record: rat intestinal microsomes, NADPH, 37° C. How it is done: 5 μL of a 10 mM stock solution of the Examples were dissolved in 495 μL acetonitrile to afford 500 μL working solution.
The appropriate amount of β-Nicotinamide adenine dinucleotide phosphate reduced form, tetrasodium salt; NADPH-4Na (NADPH) powder was weighed and diluted into a 10 mM MgCl2 solution (working solution concentration: 10 unit/mL; final concentration in reaction system: 1 unit/mL).
The appropriate concentrations of rat intestinal microsome (Xenotech, cat. No R1000.1) working solutions were prepared in 100 mM potassium phosphate buffer.
Cold (4° C.) acetonitrile (ACN) containing 200 ng/mL tolbutamide and 200 ng/mL labetalol as internal standards (IS).
Incubation plates were pre-incubated for 10 minutes at 37° C. with constant shaking. 54 μL was transferred from Incubation plates into a blank plate and then 6 μL NADPH cofactor and 180 μL quenching solution was added to the Incubation plates. 5 μL Example working solution (100 μM) was also added to the Incubation plates and mixed thoroughly.
The T60 Incubation plate was mixed thoroughly and for the 0-min timepoint, 54 μL was transferred into a Quenching plate (containing 180 μL quenching solution and 6 μL NADPH cofactor). 44 μL NADPH cofactor was then added to the T60 Incubation plate and incubated at 37° C. for 60 min while shaking. At 5, 15, 30, 45, and 60 min, 60 μL samples were transferred from T60 Incubation plate into a Quenching plate (containing 180 μl quenching solution). For the NCF60 Incubation plate, 50 μL of buffer was added and mixed thoroughly before incubation at 37° C. for 60 min while shaking, at the 60-min time point 60 μL was transferred to the Quenching plate (containing 180 μl quenching solution). All sampling plates were shaken for 10 min, then centrifuged at 4000 rpm for 20 minutes at 4° C. 80 μL supernatant was transferred into 240 μL HPLC water, and mixed for 10 min.

Data set [4] is described as follows: Stability in aqueous media (FaSSIF, SGF, PBS). The class given is physicochemical. The settings on record: for FaSSIF (pH 6.5) % remaining 1 h / FaSSIF (pH 6.5) % remaining 6 h / FaSSIF (pH 6.5) % remaining 24 h: FaSSIF pH 6.5, 37° C.; for PBS (pH 7.4) % remaining 1 h / PBS (pH 7.4) % remaining 6 h / PBS (pH 7.4) % remaining 24 h: PBS pH 7.4, 37° C.; for SGF (pH 1.2) % remaining 1 h / SGF (pH 1.2) % remaining 6 h / SGF (pH 1.2) % remaining 24 h: SGF pH 1.2, 37° C. The procedure:
10 μL of a 10 mM stock solution of the Examples were dissolved in 490 μL DMSO to afford […] working solution SGF (pH 1.2):
Dissolve 0.04 g NaCl and 0.064 g pepsin in 0.14 mL HCl and add sufficient water to 20 mL volume. The pH of the test solution was 1.20±0.05.
0.056% (w/v) lecithin, 0.161% (w/v) sodium taurocholate, 0.39% (w/v) monobasic potassium phosphate, 0.77% (w/v) potassium chloride, deionized H2O. The pH of the test solution was 6.5±0.05.
30 mL of 10×PBS (pH7.4) was added into a 50 mL flask and diluted with water. The solution was mixed well and adjusted to pH 7.4 with 1 N HCl.
2 μL of the 200 μL working solution of the Examples was added into 96-deep-well plates for TO, T60, T120, T360 and T1440 timepoints. Duplicates were prepared.
Stability studies were commenced by the addition of 198 μL of the required media (e.g. Simulated Gastric Fluid pH 1.2 [SGF], Simulated Fasted State Intestinal Fluid pH 6.5 [FaSSIF]) and Phosphate Buffered Saline pH 7.4 [PBS]) to each well except TO. The samples were incubated at 37° C. at 600 rpm for the appointed time. The samples at the corresponding timepoint were removed and immediately mixed with 400 μL of cold acetonitrile containing 200 ng/mL tolbutamide and labetalol (internal standard). The samples were centrifuged at 4000 rpm at 4° C. for 20 minutes. 60 μL of the supernatant was removed and mixed with 180 μL purified water and thoroughly mixed and analysed by LCMS (Shimadzu LC 30-AD, ACQUITY UPLC BEH Phenyl 1.7 um 2.1*50 mm Part No. 186002884, with mobile phase A: 0.1% formic acid in water, mobile phase B: 0.1% formic acid in acetonitrile). Formation of parent was also monitored as a metabolite.
Samples were analysed by Mass Spectrometry QTRAP 6500+.

Data set [5] is classed as in vitro ADME. The note with it: rat plasma, 37° C. How it is done: 5 μL of a 10 mM stock solution of the Examples were dissolved in 495 μL DMSO to afford 500 μL working solution Assay procedure:
98 μL plasma was added to each well of a 96-well reaction plate, using one plate per timepoint (Blank, TO, T10, T30, T60, and T120). 2 μL of working solution was added to each well of the reaction plates except Blank. Each plate was incubated at 37° C. for the indicated timepoint (0, 10, 30, 60, 120 minutes). At the end of incubation, 400 μL of stop solution (200 ng/mL tolbutamide and 200 ng/mL labetalol in 0.1% FA in ACN) was added to precipitate protein. The plates were then sealed and shaken for 20 minutes before centrifugation at 4000 rpm for 20 minutes. […] Formation of parent was also monitored as a metabolite.

[6] abbreviates: simulated gastric fluid, SGF (pH 1.2).

Molecules are shown by their SMILES. ≈ marks a conversion by molar mass, not a printed value. A value given as a limit tells only on which side of the number the result lay.

On to `O=C(O)c1ccc2c(c1)nc(OCCOCCCCNCc1cc(F)c(OC(F)(F)F)c(F)c1)c1ccncc12` [Reference Example 1, 5-(2-(4-((3,5-difluoro-4-(trifluoromethoxy)benzyl)amino)butoxy)ethoxy)benzo[c][2,6]naphthyridine-8-carboxylic acid], for which the solubility was 31 µg/mL (≈ 54.8 µM) in data set [1] (aqueous buffer, kinetic from dmso stock, kinetic, phosphate buffer, initial pH 7.4); 256 µg/mL (≈ 453 µM) in data set [1] (aqueous buffer, thermodynamic from solid, thermodynamic, phosphate buffer, initial pH 1.0); under 0.9 µg/mL in data set [1] (aqueous buffer, thermodynamic from solid, thermodynamic, phosphate buffer, initial pH 7.4); under 0.9 µg/mL in data set [1] (aqueous buffer, thermodynamic from solid, thermodynamic, phosphate buffer, initial pH 10.0); 1.6 µg/mL (≈ 2.83 µM) in data set [1] (thermodynamic from solid, thermodynamic, FaSSIF, initial pH 6.5).
In data set [2] (setting [6]), `CC(=O)OCOC(=O)c1ccc2c(c1)nc(OCCOCCCCNCc1cc(F)c(OC(F)(F)F)c(F)c1)c1ccncc12` [Example 10, acetoxymethyl 5-(2-(4-((3,5-difluoro-4-(trifluoromethoxy)benzyl)amino)butoxy)ethoxy)benzo[c][2,6]naphthyridine-8-carboxylate] yielded a solubility (kinetic) at 24 h of 20.9 µg/mL (≈ 32.8 µM). The solubility (kinetic) at 24 h in data set [2] (FaSSIF (pH 6.5)) is 91.3 µg/mL (≈ 143 µM). In data set [3], the “CIint(mic)” value is 61.8 µL/min/mg and the half-life at 1 µM was determined as 37.4 min. Moreover, in data set [4], the “FaSSIF (pH 6.5) % remaining 1 h” value was found to be 101.7%, the “FaSSIF (pH 6.5) % remaining 6 h” value is given as 97.1%, the “FaSSIF (pH 6.5) % remaining 24 h” value worked out at 104.4% and the “PBS (pH 7.4) % remaining 1 h” value worked out at 78.8%. Also, in data set [4], the “PBS (pH 7.4) % remaining 6 h” value came out at 7.1%, the “PBS (pH 7.4) % remaining 24 h” value is on record as 1.1%, the “SGF (pH 1.2) % remaining 1 h” value is on record as 101.5% and the “SGF (pH 1.2) % remaining 6 h” value turned out to be 55.9%. For the same compound, the “SGF (pH 1.2) % remaining 24 h” value in data set [4] came to 10.1%. In data set [5], the “% Example remaining 0 min” value was 100.0%, the “Example concentration (nM) 0 min” value is recorded as 2023.5 nM, the “% Example remaining 10 min” value amounted to 0.1% and the “Example concentration (nM) 10 min” value is listed as 2.1 nM.
`CCOC(=O)OCOC(=O)c1ccc2c(c1)nc(OCCOCCCCNCc1cc(F)c(OC(F)(F)F)c(F)c1)c1ccncc12` [Example 13, ((ethoxycarbonyl)oxy)methyl 5-(2-(4-((3,5-difluoro-4-(trifluoromethoxy)benzyl)amino)butoxy)ethoxy)benzo[c][2,6]naphthyridine-8-carboxylate] returned a solubility (kinetic) at 24 h in data set [2] (setting [6]) of 17.8 µg/mL (≈ 26.7 µM). The compound further gave a solubility (kinetic) at 24 h in data set [2] (FaSSIF (pH 6.5)) of 98 µg/mL (≈ 147 µM). In data set [3], the “CIint(mic)” value was 126.2 µL/min/mg and the half-life at 1 µM came to 18.3 min. For the same compound, in data set [4], the “FaSSIF (pH 6.5) % remaining 1 h” value is recorded as 106.5%, the “FaSSIF (pH 6.5) % remaining 6 h” value turned out to be 99.8%, the “FaSSIF (pH 6.5) % remaining 24 h” value is reported as 96.8% and the “PBS (pH 7.4) % remaining 1 h” value was found to be 84.3%. Also, in data set [4], the “PBS (pH 7.4) % remaining 6 h” value is 17.5%, the “PBS (pH 7.4) % remaining 24 h” value was determined as 20.5%, the “SGF (pH 1.2) % remaining 1 h” value is 106.8% and the “SGF (pH 1.2) % remaining 6 h” value came out at 63.6%. Further, the “SGF (pH 1.2) % remaining 24 h” value in data set [4] is reported as 21.5%. Further, in data set [5], the “% Example remaining 0 min” value is listed as 100.0%, the “Example concentration (nM) 0 min” value worked out at 1601.0 nM, the “% Example remaining 10 min” value is reported as 0.1% and the “Example concentration (nM) 10 min” value is recorded as 1.6 nM.

As usually defined, the solubility is the concentration that dissolves in the medium under given conditions. Read a high solubility as a readily soluble substance. As a reminder, the kinetic solubility is the concentration staying in solution when a stock, usually in DMSO, is diluted into the medium. As a reminder, the half-life is how long it takes for the measured level to halve.

Source of the values: patent US20260085069A1, “PRODRUGS” (Cambridge Enterprise Limited, priority 2022, published 2026).
